{"source": "patent US10654852B2", "about": "“Antibiotics and methods of using same” (THE BROAD INSTITUTE, INC., priority 2016, dated 2020)", "type_in_all_cases": "cell-based", "key": {"[1]": {"test_system": "Serratia marcescens Bizio ATCC-29021", "assay": "MIC (50% NHS)", "conditions": "ATCC29021; Serratia marcescens Bizio ATCC-29021, 50% NHS"}, "[2]": {"test_system": "Staphylococcus aureus WX1-009", "assay": "MIC (50% NHS)", "conditions": "WX1009; Staphylococcus aureus WX1-009, 50% NHS"}, "[3]": {"test_system": "Escherichia coli ATCC-25922", "assay": "MIC in the presence of normal human serum (50% NHS)", "conditions": "ATCC25922; Escherichia coli ATCC-25922, 50% NHS, Table 6; read-out: MIC", "from_the_text": "As used herein, the term “MIC” refers to minimum inhibitory concentrations. Minimum inhibitory concentrations may be determined by broth microdilution according to the Clinical and Laboratory Standards Institute guidelines (see, e.g., […]-A8. Methods for dilution antimicrobial susceptibility tests for bacteria that grow aerobically: approved standard, 8th Ed.; […] One example for measuring minimum inhibitory concentrations may be found in Reck et al., 2012, J. Med. Chem. 55:6916-6933, the disclosure of which is incorporated by reference. Inoculants may be incubated on blood agar plates for 18 to 24 hours. Incubation may occur at a temperature from about 35° C. to about 37° C. […] In serum supplemented experiments, the testing medium (e.g., DMSO solution) and human serum may be mixed. The ratio of testing medium to human serum may be 1:1 (vol:vol). Plates may be read by spectrophotometry at 620 nm. Unless indicated otherwise, all inhibitory concentrations recited in the specification relate to MICs. The MIC tests were based on broth microdilution method in CLSI-M7. […] Solutions of varying concentrations of DMSO were prepared in wells of a v-bottom 96-well plate (Axygen-WIPP02280). A multi-pipette was used to perform serial dilutions as necessary. From well to well, the drug concentrations were 6.4, 3.2, 1.6, 0.8, 0.4, 0.2, 0.1, 0.05, 0.025, 0.0125, 0.00625 and 0 mg/ml in DMSO. For extremely potent antibiotic, the starting concentrations were adjusted accordingly. This was the drug mother plate. Daughter plates were prepared by placing 98 μl of a testing medium into each well of a u-bottom 96-well plate (Costar 3788). An aliquot of each 2 μl solution from each well of the mother plate was then transferred into the corresponding wells of the daughter plate using a multi-pipette work station (CyBi®-SELMA). Testing media were selected based on CLSI-M7, M11 and […]. Cation adjusted Mueller Hinton Broth (CA-MHB-212322) was the testing medium for majority of bacterial species. Brucella medium (BD-211088) supplemented with 5% LHB, 0.5% hemin and 0.1% vitamin K1 (Sigma-95271) was the testing medium for anaerobic bacteria. One day prior to the day of MIC test, bacterial strains were streaked out from -80° C. glycerol stock onto Trypticase Soy Agar (TSA) plates (Brucella blood agar for anaerobic bacteria) and incubated at 37° C. for 20 hours (in anaerobic condition for anaerobic bacteria, e.g., 80% N2, 10% H2 and 10% CO2). Single colonies of bacteria were picked by using an inoculation loop (Greiner-731175) and suspended into 5 ml sterile saline. The turbidity of the suspension was adjusted to 0.10 (Siemens MicroS can turbidity meter), which implies a concentration of colony forming units (“CFU”) of approximately 1.0×10^8 CFU/ml. The bacterial suspension was diluted 100× in testing media. For MIC experiments with NHS, testing medium and human serum (Equitech Bio Inc. BRH-949908) were mixed in the ratio of 1:1. This was used for inoculation of the daughter plates. An aliquot of 100 μl of the bacterial suspension was inoculated into each well of the daughter plates using a multi-pipette. […] The plates were incubated in ambient atmosphere and at 37° C. in an incubator for 20 hours (for anaerobic bacteria in an anaerobic condition as described above for 48 hours). The MIC values were determined and based on the standards of CLSI methods M7-A7, broth microdilution method. […] Test compounds were compared to control antibiotics Penicillin G (Sigma-13752) and levofloxacin (Sigma-28266). […] Additionally, the MIC's of another gyrase inhibitor (“GSK”) with a structure different from the inventive compounds and the antibacterial levofloxin was measured. MIC are given in μg/mL."}, "[4]": {"test_system": "Acinetobacter baumannii ATCC 17978", "assay": "MIC (50% NHS)", "conditions": "ATCC17978; Acinetobacter baumannii ATCC 17978, 50% NHS"}, "[5]": {"test_system": "Enterococcus faecalis ATCC-29212", "assay": "MIC (50% NHS)", "conditions": "ATCC29212; Enterococcus faecalis ATCC-29212, 50% NHS"}, "[6]": {"test_system": "Escherichia coli CCUG-59353", "assay": "MIC (50% NHS)", "conditions": "CCUG59353; Escherichia coli CCUG-59353, 50% NHS"}, "[7]": {"test_system": "Citrobacter werkmanii Brenner ATCC-51114", "assay": "MIC (50% NHS)", "conditions": "ATCC51114; Citrobacter werkmanii Brenner ATCC-51114, 50% NHS"}, "[8]": {"test_system": "Klebsiella pneumonia ATCC-43816", "assay": "MIC (50% NHS)", "conditions": "Klebsiella pneumoniae, ATCC43816; Klebsiella pneumonia ATCC-43816, 50% NHS"}, "[9]": {"test_system": "Pseudomonas aeruginosa ATCC-BAA-47 (PAO1)", "assay": "MIC (50% NHS)"}, "[10]": {"test_system": "Staphylococcus aureus NRS-100", "assay": "MIC (50% NHS)", "conditions": "NRS100; Staphylococcus aureus NRS-100, 50% NHS"}, "[11]": {"test_system": "Enterococcus faecium ATCC-700221", "assay": "MIC (50% NHS)", "conditions": "ATCC700221; Enterococcus faecium ATCC-700221, 50% NHS"}, "[12]": {"test_system": "Escherichia coli NCTC-13476", "assay": "MIC (50% NHS)", "conditions": "NCTC13476; Escherichia coli NCTC-13476, 50% NHS"}, "[13]": {"test_system": "Klebsiella pneumonia ATCC-700603", "assay": "MIC (50% NHS)", "conditions": "Klebsiella pneumoniae, ATCC700603; Klebsiella pneumonia ATCC-700603, 50% NHS"}, "[14]": {"test_system": "Enterobacter cloacae ATCC-222", "assay": "MIC (50% NHS)", "conditions": "ATCC222; Enterobacter cloacae ATCC-222, 50% NHS"}, "[15]": {"test_system": "Enterobacter aerogenes ATCC-13048", "assay": "MIC (50% NHS)", "conditions": "Klebsiella aerogenes, ATCC13048; Enterobacter aerogenes ATCC-13048, 50% NHS"}, "[16]": {"test_system": "Staphylococcus aureus NRS-384", "assay": "MIC (50% NHS)", "conditions": "NRS384; Staphylococcus aureus NRS-384, 50% NHS"}, "[17]": {"test_system": "Escherichia coli ATCC-BAA-2340", "assay": "MIC (50% NHS)", "conditions": "ATCCBAA2340; Escherichia coli ATCC-BAA-2340, 50% NHS"}, "[18]": {"test_system": "Enterobacter cloacae ATCC-BAA-1143", "assay": "MIC (50% NHS)", "conditions": "ATCCBAA1143; Enterobacter cloacae ATCC-BAA-1143, 50% NHS"}, "[19]": {"test_system": "Staphylococcus aureus ATCC-29213", "assay": "MIC (50% NHS)", "conditions": "ATCC29213; Staphylococcus aureus ATCC-29213, 50% NHS"}, "[20]": {"test_system": "Proteus mirabilis ATCC-29906", "assay": "MIC (50% NHS)", "conditions": "ATCC29906; Proteus mirabilis ATCC-29906, 50% NHS"}}}
{"smiles": "C[C@H]1COc2c(N3CCN(C)CC3)c(F)cc3c(=O)c(C(=O)O)cn1c23", "note": "[Levofloxin, reference compound]", "values": [{"measurement": "MIC", "setting": "[1]", "value": 0.13, "unit": "µg/mL"}, {"measurement": "MIC", "setting": "[2]", "value": "> 2", "unit": "µg/mL"}, {"measurement": "MIC", "setting": "[3]", "value": 0.031, "unit": "µg/mL"}, {"measurement": "MIC", "setting": "[4]", "value": 1, "unit": "µg/mL"}, {"measurement": "MIC", "setting": "[5]", "value": 2, "unit": "µg/mL"}, {"measurement": "MIC", "setting": "[6]", "value": "> 2", "unit": "µg/mL"}, {"measurement": "MIC", "setting": "[7]", "value": 0.25, "unit": "µg/mL"}, {"measurement": "MIC", "setting": "[8]", "value": 0.13, "unit": "µg/mL"}, {"measurement": "MIC", "setting": "[9]", "value": 1, "unit": "µg/mL"}, {"measurement": "MIC", "setting": "[10]", "value": 0.5, "unit": "µg/mL"}, {"measurement": "MIC", "setting": "[11]", "value": "> 2", "unit": "µg/mL"}, {"measurement": "MIC", "setting": "[12]", "value": "> 2", "unit": "µg/mL"}, {"measurement": "MIC", "setting": "[13]", "value": 0.5, "unit": "µg/mL"}, {"measurement": "MIC", "setting": "[14]", "value": 0.06, "unit": "µg/mL"}, {"measurement": "MIC", "setting": "[15]", "value": 0.13, "unit": "µg/mL"}, {"measurement": "MIC", "setting": "[16]", "value": 1, "unit": "µg/mL"}, {"measurement": "MIC", "setting": "[17]", "value": "> 2", "unit": "µg/mL"}, {"measurement": "MIC", "setting": "[18]", "value": 0.06, "unit": "µg/mL"}, {"measurement": "MIC", "setting": "[19]", "value": 0.5, "unit": "µg/mL"}, {"measurement": "MIC", "setting": "[20]", "value": 0.25, "unit": "µg/mL"}]}
